Results taken from US12358948B2, “Neurotensinergic agonists and methods of using same preventing or treating pain” (priority 2019, dated 2025).
Read-outs that look alike come from different tables or passages of the source. *1 amine or outer side, *2 acyl side, *3 side chain or, on linkers, in order; H or OH if unused. Where a SMILES comes first, the peptide text is derived from it. Bridges are numbered along the chain shown (N, C = ends). [ ]: non-standard residue; d: D form. ξ: configuration not given here. ξαMeNle(6-ylidene) = CC(CCCC=[*:3])(N[*:1])C(=O)[*:2]; X1 = O=C(C1C[C@@H]2CCCC[C@@H]2N1[*:1])[*:2]; Phe(4-Br) = N[C@@H](Cc1ccc(Br)cc1)C(=O)O; Ala(cPent) = N[C@@H](CC1CCCC1)C(=O)O; Bta = N[C@@H](Cc1csc2ccccc12)C(=O)O; 2Pal = N[C@@H](Cc1ccccn1)C(=O)O; 3Pal = N[C@@H](Cc1cccnc1)C(=O)O; Tic = O=C(O)[C@@H]1Cc2ccccc2CN1; AllylGly = C=CC[C@H](N)C(=O)O

Legend:
[1] = tested on: ileum; experiment: Ileum relaxation assay ex vivo; set-up: species or system rat; details: 10^−11 to 10^−6 M, after contraction with carbachol
Method: The functional ileum bioassay was carried out as described in detail elsewhere. (Van der Poorten, O., Van Den Hauwe, R., Eiselt, E., Betti, C., Guillemyn, K., Chung, N. N., Hall, F., Bihel, F., Schiller, P. W., Tourwé, D., Sarret, P., Gendron, L, . . . Ballet, S. (2017). X-Space Screening of Dermorphin-Based Tetrapeptides through Use of Constrained Arylazepinone and Quinolinone Scaffolds. ACS medicinal chemistry letters, 8(11), 1177-1182) Briefly, rats were euthanized, and 2 cm ileum segments were dissected out before removal of extraneous fat and connective tissue.
The ileum was then mounted under 0.5-g tension in a 10 mL organ bath containing warmed (37° C.) and oxygenated (95% O2, 5% CO2) Krebs solution (6.9 g/L NaCl, 0.145 g/L MgSO4, 2.1 g/L NaHCO3, 0.35 g/L KCl, 0.165 g/L KH2PO4, 1.98 g/L dextrose and 0.28 g/L CaCl2)). […] Contractions of the muscle were recorded via an isometric force transducer (159901A, Radnoti, Monrovia, CA, USA). […]
Each concentration of the compounds tested were followed by 2×15-min washout periods in Krebs solution to allow full relaxation. Dose-response curves were obtained with NT (8-13) (10^−11 to 10^−6) as standard for each ileum and for compound 34(10^−11 to 10^−5) and IC50 values were determined. […]
Data are expressed as mean±standard errors of the mean (SEM). […]

[2] = target: T1, hNTS2 receptor (Homo sapiens, UniProt O95665); experiment: Competitive radioligand binding assay on the hNTS2 receptor; details: for IC50: membranes of 1321N1 cells expressing hNTS2; for Selectivity: ratio IC50 for NTS1 : IC50 for NTS2
T1 construct: membranes prepared from them
T1 sequence (O95665 whole entry): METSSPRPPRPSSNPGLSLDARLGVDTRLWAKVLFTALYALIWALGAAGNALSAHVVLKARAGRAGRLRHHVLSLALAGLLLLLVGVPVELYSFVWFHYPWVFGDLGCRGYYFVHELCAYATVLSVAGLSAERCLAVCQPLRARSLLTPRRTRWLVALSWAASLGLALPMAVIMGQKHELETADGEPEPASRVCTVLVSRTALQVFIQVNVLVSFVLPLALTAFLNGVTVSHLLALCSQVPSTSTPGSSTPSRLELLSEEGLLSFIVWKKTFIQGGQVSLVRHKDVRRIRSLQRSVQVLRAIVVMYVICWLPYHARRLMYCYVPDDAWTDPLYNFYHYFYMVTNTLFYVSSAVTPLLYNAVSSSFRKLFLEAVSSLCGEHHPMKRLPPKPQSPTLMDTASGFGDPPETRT
Summary of the method: (§1)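 IC50 values came from one-site competition curves against ¹²⁵I-[Tyr³]-NT after 60 min at 25 °C (pH 7.5 Tris, 0.2% BSA), with analogues at 10⁻¹¹–10⁻⁴ M and nonspecific binding set by 10⁻⁵ M NT(8-13). hNTS1 used 15 µg CHO-K1 membranes with […] tracer; hNTS2 used 50 µg 1321N1 membranes with […] tracer.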

[3] = target: T2, hNTS1 receptor (Homo sapiens, UniProt P30989); experiment: Competitive radioligand binding assay on the hNTS1 receptor; details: membranes of CHO-K1 cells expressing hNTS1
T2 construct: membranes prepared from them
T2 sequence (P30989 whole entry): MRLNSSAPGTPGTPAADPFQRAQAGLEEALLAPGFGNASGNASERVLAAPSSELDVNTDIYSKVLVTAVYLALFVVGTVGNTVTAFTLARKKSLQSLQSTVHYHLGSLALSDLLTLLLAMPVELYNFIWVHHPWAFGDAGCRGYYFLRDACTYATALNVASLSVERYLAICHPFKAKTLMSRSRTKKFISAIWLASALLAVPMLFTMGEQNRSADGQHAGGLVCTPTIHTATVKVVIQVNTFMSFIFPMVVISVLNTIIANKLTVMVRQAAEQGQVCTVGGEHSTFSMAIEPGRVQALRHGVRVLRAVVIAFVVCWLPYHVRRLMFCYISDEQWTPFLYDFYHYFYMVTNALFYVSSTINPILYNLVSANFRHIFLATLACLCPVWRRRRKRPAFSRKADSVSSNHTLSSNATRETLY
Summary of the method: as §1

[4] = tested on: Sprague-Dawley rats; experiment: Tail-flick test (acute thermal pain), intrathecal injection; assay type: in vivo, rat; details: 61 nmol/kg i.t.
Method: Rats were housed two per cage on Aspen shavings in a quiet room and kept on a 12 h light/dark cycle and allowed ad libitum access to food and water. The experimental procedures in this study were approved by the Animal Care Committee of Université de Sherbrooke and were in accordance with policies and directives of the Canadian Council on Animal Care.
Tail-flick test: The tail flick test was used as outcome measures heat-induced pain in animals and as indicators of a compound's analgesic efficacy.
Acute pain was assessed using the Tail flick test (Tail Flick Analgesia meterV2.00, Colombus Instruments, Columbus, Ohio, USA). Tail flick test measures sensitivity to a high-intensity light beam focused on the rat tail. The tail flick apparatus was set at a light intensity of 6 and a cutoff of 10 seconds. The latency to flick the tail out of the path of the light beam corresponds to the measure of pain sensitivity or analgesia.
Before testing, animals were individually acclimatized to manipulations and behavioral apparatus 5 min/day for three consecutive days. On the test day, latencies baseline measures were taken before drug injection to provide a mean baseline. The compounds were diluted in 0.9% saline at the desired dose. The effects of the compound or saline on thermal nociception were assessed every 10 min for up to 60 min following i.t. administration.
Moreover, tail flick latencies were converted into the percent maximal possible effect (% MPE) at the time of maximal peak of analgesia. % MPE were calculated according to the following formula: % MPE=[(Test latency)−(Saline latency)]/[(Cutoff)−(Saline latency)]×100. Data are expressed as mean±SEM of 5-8 animals for each dose.
Then, ED50 values were determined using the dose-response stimulation log(agonist) vs response (four parameters).
Data are expressed as mean±standard errors of the mean (SEM). All graphs and statistical analysis were performed using GraphPad Prism™ 7 (GraphPad software, La Jolla, CA, USA). […] A two-way ANOVA followed by Tukey's multiple comparisons test was used to determine the significant differences in changes in body temperature between different concentrations of compounds and saline (FIG. 9). The % MPE for the tail-flick test and the areas under the curve for the formalin test were analyzed using a one-way ANOVA followed by a Dunnett's multiple comparisons test to compare different concentrations of compounds and saline treatment (FIGS. 2B, 4B, 7A-B and 8B-D). […] Nonlinear regression using three parameters was performed for % of ileum relaxation and IC50 value was obtained from the resulting dose-response curve (FIG. 11). A difference in response was considered significant with p-values *p<0.05, **p<0.01, ***p<0.001 and **p<0.0001.

[5] = displacement of 125I-[Tyr3]-NT, read-out: IC50 NTS2 (converted)
[6] = displacement of 125I-[Tyr3]-NT, read-out: IC50 NTS1
[7] = IC50 NTS2, displacement of 125I-[Tyr3]-NT
[8] = IC50 NTS1, displacement of 125I-[Tyr3]-NT

| IC50 [2, 5] [nM] | IC50 [3, 6] [nM] | Structure (SMILES) | IC50 [1] [nM] | Selectivity [2] | Acute pain (tail beam) (i.t.) ([4]; rat) | IC50 [2, 7] [nM] | IC50 [3, 8] [nM] | latency of the tail-flick reflex compared to baseline [4] |
| --- | --- | --- | --- | --- | --- | --- | --- | --- |
| – | – | CC[C@H](C)[C@H](NC(=O)[C@H](Cc1ccc(O)cc1)NC(=O)[C@@H]1CCCN1C(=O)[C@H](CCCNC(=N)N)NC(=O)[C@@H](N)CCCNC(=N)N)C(=O)N[C@@H](CC(C)C)C(=O)O [NT(8-13), Neurotensin 8-13, reference compound] | 3.9 | – | – | – | – | – |
| – | – | CC(C)C[C@H](NC(=O)[C@H](Cc1ccc(Br)cc1)NC(=O)[C@@H]1CC=CC[C@H](N)C(=O)N[C@@H](CCCCN)C(=O)N[C@@H](CCCCN)C(=O)N1)C(=O)O [compound 116, c[G(All)KKG(All)]F(4-bromo)L] (H-[AllylGly]KK[AllylGly][Phe(4-Br)]L-OH; staple 1-4) | – | >6443 | – | 15.5 | > 100000 | sustainably increased latency |
| – | – | NCCCC[C@@H]1NC(=O)[C@H](CCCCN)NC(=O)[C@@H](N)CC=CC[C@@H](C(=O)N[C@@H](Cc2ccc(Br)cc2)C(=O)N[C@@H](CC2CCCC2)C(=O)O)NC1=O [compound 127, c[G(All)KKG(All)]F(4-bromo)A(cyclopentyl)] (H-[AllylGly]KK[AllylGly][Phe(4-Br)][Ala(cPent)]-OH; staple 1-4) | – | 49505 | – | 2 | > 100000 | sustainably increased latency |
| – | – | CC1(C(=O)N[C@@H](Cc2ccc(O)cc2)C(=O)N[C@@H](CC2CCCC2)C(=O)O)CCCC=CC[C@H](N)C(=O)N[C@@H](CCCCN)C(=O)N[C@@H](CCCCN)C(=O)N1 (stereo partly drawn) [compound 128, c[G(All)KKG((S)-alpha-Me-(4-pentenyl))]YA(cyclopentyl)] (H-[AllylGly]KK[ξαMeNle(6-ylidene)]Y[Ala(cPent)]-OH; staple 1-4) | – | 12788 | – | 7.8 | > 100000 | sustainably increased latency |
| – | – | CC1(C(=O)N[C@@H](Cc2ccc(Br)cc2)C(=O)N[C@@H](CC2CCCC2)C(=O)O)CCCC=CC[C@H](N)C(=O)N[C@@H](CCCCN)C(=O)N[C@@H](CCCCN)C(=O)N1 (stereo partly drawn) [compound 133, c[G(All)KKG(alpha-Me-(4-pentenyl))]F(4-bromo)A (cyclopentyl)] (H-[AllylGly]KK[ξαMeNle(6-ylidene)][Phe(4-Br)][Ala(cPent)]-OH; staple 1-4) | – | 33333 | – | 3 | > 100000 | sustainably increased latency |
| 509 | > 100000 | CC(C)C[C@H](NC(=O)[C@H](Cc1ccccn1)NC(=O)[C@@H]1CC=CC[C@H](N)C(=O)N[C@@H](CCCCN)C(=O)N[C@@H](CCCCN)C(=O)N1)C(=O)O [compound 165, c[G(All)KKG(All)]A(2-pyridyl)L] (H-[AllylGly]KK[AllylGly][2Pal]L-OH; staple 1-4) | – | 20 | – | – | – | – |
| 33.3 | > 100000 | CC(C)C[C@H](NC(=O)C1C[C@@H]2CCCC[C@@H]2N1C(=O)[C@@H]1CC=CC[C@H](N)C(=O)N[C@@H](CCCCN)C(=O)N[C@@H](CCCCN)C(=O)N1)C(=O)O (stereo partly drawn) [compound 166, c[G(All)KKG(All)p (octahydroindol)L] (H-[AllylGly]KK[AllylGly][X1]L-OH; staple 1-4) | – | 3006 | – | – | – | – |
| 96.2 | > 100000 | CC(C)C[C@H](NC(=O)[C@@H]1Cc2ccccc2CN1C(=O)[C@@H]1CC=CC[C@H](N)C(=O)N[C@@H](CCCCN)C(=O)N[C@@H](CCCCN)C(=O)N1)C(=O)O [compound 167, c[G(All)KKG(All)]G(Tic)*L*] (H-[AllylGly]KK[AllylGly][Tic]L-OH; staple 1-4) | – | 1040 | – | – | – | – |
| 102 | > 100000 | CC(C)C[C@H](NC(=O)[C@H](Cc1csc2ccccc12)NC(=O)[C@@H]1CC=CC[C@H](N)C(=O)N[C@@H](CCCCN)C(=O)N[C@@H](CCCCN)C(=O)N1)C(=O)O [compound 168, c[G(All)KKG(All)]A(3-benzothienyl)L] (H-[AllylGly]KK[AllylGly][Bta]L-OH; staple 1-4) | – | 979 | – | – | – | – |
| 234 | > 100000 | CC(C)C[C@H](NC(=O)[C@H](Cc1cccnc1)NC(=O)[C@@H]1CC=CC[C@H](N)C(=O)N[C@@H](CCCCN)C(=O)N[C@@H](CCCCN)C(=O)N1)C(=O)O [compound 169, c[G(All)KKG(All)]A(3-pyridyl)L] (H-[AllylGly]KK[AllylGly][3Pal]L-OH; staple 1-4) | – | 427 | – | – | – | – |

| Structure (SMILES) | IC50 [2, 5] [nM] | IC50 [3, 6] [nM] | IC50 [1] [nM] | Selectivity [2] | Acute pain (tail beam) (i.t.) ([4]; rat) | IC50 [2, 7] [nM] | IC50 [3, 8] [nM] | latency of the tail-flick reflex compared to baseline [4] |
| --- | --- | --- | --- | --- | --- | --- | --- | --- |
| CC(C)C[C@H](NC(=O)[C@H](Cc1ccc(O)cc1)NC(=O)[C@@H]1CC=CCCC(=O)N[C@@H](CCCCN)C(=O)N[C@@H](CCCCN)C(=O)N1)C(=O)O [compound 60, c[K(Pentenoyl)KG(All)]YL] | 47 | > 100000 | – | >2127.7 | No effect (61 nmol/kg) | – | – | – |
